Experimental data from ChEMBL document CHEMBL1201862, “PubChem BioAssay data set” (2004).
Calls of active or inactive are those of the source.

Assays:
[1] = biological target: T1, Dual specificity protein phosphatase 3 (Homo sapiens, UniProt P51452); experiment: SAR VHR1 Fluorescent Assay for In Vitro dose response studies Set 2. [Related pubchem assays (depositor defined):AID1654, AID1661, AID1878]; type: functional
[2] = biological target: T2, Tyrosine-protein phosphatase non-receptor type 7 (Homo sapiens, UniProt P35236); experiment: redox-dependent HePTP inhibition, mechanism study, biochemical, fluorescence (AID 2068); type: functional
T2 sequence (P35236 whole entry): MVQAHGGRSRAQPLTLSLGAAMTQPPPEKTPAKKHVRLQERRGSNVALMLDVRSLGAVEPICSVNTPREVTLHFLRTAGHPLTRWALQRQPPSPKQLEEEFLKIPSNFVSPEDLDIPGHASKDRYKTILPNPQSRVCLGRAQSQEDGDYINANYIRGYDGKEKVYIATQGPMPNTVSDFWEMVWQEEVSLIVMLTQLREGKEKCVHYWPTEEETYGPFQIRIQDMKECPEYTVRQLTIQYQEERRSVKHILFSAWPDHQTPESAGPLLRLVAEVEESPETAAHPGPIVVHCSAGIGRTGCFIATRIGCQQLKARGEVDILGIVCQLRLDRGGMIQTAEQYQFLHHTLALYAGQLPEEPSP

[3] = biological target: T3, Dual specificity protein phosphatase 6 (Rattus norvegicus, UniProt Q64346); type: functional
T3 sequence (Q64346 whole entry): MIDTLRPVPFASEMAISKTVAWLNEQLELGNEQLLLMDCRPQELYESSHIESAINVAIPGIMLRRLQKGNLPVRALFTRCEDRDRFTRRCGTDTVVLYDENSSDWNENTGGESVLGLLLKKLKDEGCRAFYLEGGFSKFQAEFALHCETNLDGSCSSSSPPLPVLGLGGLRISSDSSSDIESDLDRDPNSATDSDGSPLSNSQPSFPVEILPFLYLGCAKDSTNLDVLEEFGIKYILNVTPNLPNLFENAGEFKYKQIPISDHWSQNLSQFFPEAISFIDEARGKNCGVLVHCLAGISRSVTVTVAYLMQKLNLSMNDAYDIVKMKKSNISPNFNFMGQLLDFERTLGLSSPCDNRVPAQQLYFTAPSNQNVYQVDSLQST

[4] = biological target: T2, Tyrosine-protein phosphatase non-receptor type 7; experiment: HePTP (PTPN7) phosphatase inhibitor potency, SAR follow-up, biochemical, set 2 (AID 449736); type: functional
[5] = biological target: T2, Tyrosine-protein phosphatase non-receptor type 7; experiment: SAR analysis of chemical inhibitors of HePTP using a Fluorescent assay - Set 2. [Related pubchem assays (depositor defined):AID1059, AID1077, AID1661, AID2085, AID521]; type: functional
[6] = biological target: T3, Dual specificity protein phosphatase 6; experiment: SAR analysis of inhibitors of MKP-3 - Set 2. [Related pubchem assays (depositor defined):AID1055, AID1661, AID425, AID553, AID566]; type: functional
[7] = biological target: T1, Dual specificity protein phosphatase 3; experiment: SAR VHR1 absorbance Assay for In Vitro dose response studies. [Related pubchem assays (depositor defined):AID1654, AID1661, AID1878, AID1992, AID2004]
[8] = biological target: T1, Dual specificity protein phosphatase 3; experiment: SAR VHR1 Fluorescent Assay for In Vitro dose response studies. [Related pubchem assays (depositor defined):AID1654, AID1661, AID1878, AID1992, AID2004, AID2070, AID2085]; type: functional
CAAX prenyl protease 2 = CAAX prenyl protease 2 (Saccharomyces cerevisiae S288c, UniProt Q03530); type: biochemical
CAAX prenyl protease 2, sequence (Q03530 whole entry): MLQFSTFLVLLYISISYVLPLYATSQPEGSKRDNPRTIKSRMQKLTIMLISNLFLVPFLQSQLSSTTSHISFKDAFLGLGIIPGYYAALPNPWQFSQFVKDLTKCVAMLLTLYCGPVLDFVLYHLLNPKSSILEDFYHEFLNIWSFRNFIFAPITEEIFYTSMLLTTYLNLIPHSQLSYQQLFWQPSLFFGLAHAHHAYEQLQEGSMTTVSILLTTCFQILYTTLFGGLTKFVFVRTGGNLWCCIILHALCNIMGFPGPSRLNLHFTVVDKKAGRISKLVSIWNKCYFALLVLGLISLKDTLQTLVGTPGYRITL

[9] = cytotoxicity toward NIH3T3 fibroblasts, dose response, counter-screen, cell-based, ATP luminescence, mouse fibroblasts (AID 2010); type: functional;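 also: cells exposed to compound for about 90 hours before reading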
[10] = inhibitors of intracellular T. cruzi replication, confirmation, NIH3T3 host cells, beta-gal luminescence (AID 2044); type: functional, cell-based;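 also: intracellular parasites grown in NIH/3T3 mouse fibroblasts as host cells; luminescent beta-galactosidase reporter signal from transgenic T. cruzi replicating inside host cells; inhibitors lower the luminescence signal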
[11] = cytotoxicity in NIH/3T3 mouse fibroblasts, dose response, cytotoxicity control, cell-based, mouse embryonic fibroblasts, dry powder, set 2 (AID 493247); type: functional; settings: Fibroblast
Mucolipin-3 = biological target: T4, Mucolipin-3 (Homo sapiens, UniProt Q8TDD5); experiment: Dose response cell-based high-throughput screening assay for agonists of the transient receptor potential channel ML3 (TRPML3). [Related pubchem assays: 1526, 1424, 1448 ]; type: functional
T4 sequence (Q8TDD5 whole entry): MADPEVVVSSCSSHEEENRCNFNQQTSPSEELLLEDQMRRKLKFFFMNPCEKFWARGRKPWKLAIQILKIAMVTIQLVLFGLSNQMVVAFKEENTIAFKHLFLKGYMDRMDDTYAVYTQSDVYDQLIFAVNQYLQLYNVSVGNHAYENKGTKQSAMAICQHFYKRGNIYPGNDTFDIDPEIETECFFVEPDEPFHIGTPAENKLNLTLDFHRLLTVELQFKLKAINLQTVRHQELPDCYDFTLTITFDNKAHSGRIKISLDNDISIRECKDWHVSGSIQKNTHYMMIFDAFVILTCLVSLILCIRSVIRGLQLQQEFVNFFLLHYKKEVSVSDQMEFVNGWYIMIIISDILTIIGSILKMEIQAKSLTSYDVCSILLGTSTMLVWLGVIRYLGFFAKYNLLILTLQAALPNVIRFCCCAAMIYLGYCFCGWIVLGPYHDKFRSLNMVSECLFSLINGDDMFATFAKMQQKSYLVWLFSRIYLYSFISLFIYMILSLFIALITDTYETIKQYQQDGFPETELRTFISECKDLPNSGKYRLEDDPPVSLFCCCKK

[12] = Fluorescence-based cell-based high throughput dose response assay for inhibitors of the interaction of nucleotide-binding oligomerization domain containing 2 (NOD2) and the receptor-interacting serine-threonine kinase 2 (RIPK2).; type: functional; settings: Homo sapiens
[13] = biological target: T5, Heat shock factor protein 1 (Mus musculus, UniProt P38532); experiment: HSF1 potentiators in luciferase reporter cells, confirmation, cell-based, NIH3T3, luminescence, dose retest (AID 435004); type: functional;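 also: stress induced by proteasome inhibitor MG132 added 30 min after compound; luciferase reporter driven by HSF1 response element in NIH3T3 cells; actives raise luminescence as potentiators of the MG132 stress response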
T5 sequence (P38532 whole entry): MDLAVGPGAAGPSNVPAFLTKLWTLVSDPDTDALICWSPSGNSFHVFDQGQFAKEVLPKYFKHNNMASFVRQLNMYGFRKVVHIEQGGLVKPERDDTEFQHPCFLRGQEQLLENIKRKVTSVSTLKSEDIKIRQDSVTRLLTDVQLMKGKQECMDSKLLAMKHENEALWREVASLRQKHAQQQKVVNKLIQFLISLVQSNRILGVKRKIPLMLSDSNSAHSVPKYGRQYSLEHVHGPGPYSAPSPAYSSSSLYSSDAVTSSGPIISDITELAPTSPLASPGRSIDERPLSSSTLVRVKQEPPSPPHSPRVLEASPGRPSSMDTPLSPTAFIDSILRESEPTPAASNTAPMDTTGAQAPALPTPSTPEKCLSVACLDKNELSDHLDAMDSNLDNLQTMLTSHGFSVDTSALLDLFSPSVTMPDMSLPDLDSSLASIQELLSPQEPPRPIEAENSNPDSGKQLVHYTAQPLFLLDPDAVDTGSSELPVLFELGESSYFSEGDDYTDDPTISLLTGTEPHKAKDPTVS

Ion channel NompC = Ion channel NompC (Danio rerio, UniProt Q7T1G6); experiment: Fluorescence counterscreen assay for TRPML3 agonists: dose response cell-based high-throughput screening assay to identify agonists of the transient receptor potential channel N1 (TRPN1). [Related pubchem assays: 1526, 1424, 1448 ]; type: functional
Ion channel NompC, sequence (Q7T1G6 whole entry): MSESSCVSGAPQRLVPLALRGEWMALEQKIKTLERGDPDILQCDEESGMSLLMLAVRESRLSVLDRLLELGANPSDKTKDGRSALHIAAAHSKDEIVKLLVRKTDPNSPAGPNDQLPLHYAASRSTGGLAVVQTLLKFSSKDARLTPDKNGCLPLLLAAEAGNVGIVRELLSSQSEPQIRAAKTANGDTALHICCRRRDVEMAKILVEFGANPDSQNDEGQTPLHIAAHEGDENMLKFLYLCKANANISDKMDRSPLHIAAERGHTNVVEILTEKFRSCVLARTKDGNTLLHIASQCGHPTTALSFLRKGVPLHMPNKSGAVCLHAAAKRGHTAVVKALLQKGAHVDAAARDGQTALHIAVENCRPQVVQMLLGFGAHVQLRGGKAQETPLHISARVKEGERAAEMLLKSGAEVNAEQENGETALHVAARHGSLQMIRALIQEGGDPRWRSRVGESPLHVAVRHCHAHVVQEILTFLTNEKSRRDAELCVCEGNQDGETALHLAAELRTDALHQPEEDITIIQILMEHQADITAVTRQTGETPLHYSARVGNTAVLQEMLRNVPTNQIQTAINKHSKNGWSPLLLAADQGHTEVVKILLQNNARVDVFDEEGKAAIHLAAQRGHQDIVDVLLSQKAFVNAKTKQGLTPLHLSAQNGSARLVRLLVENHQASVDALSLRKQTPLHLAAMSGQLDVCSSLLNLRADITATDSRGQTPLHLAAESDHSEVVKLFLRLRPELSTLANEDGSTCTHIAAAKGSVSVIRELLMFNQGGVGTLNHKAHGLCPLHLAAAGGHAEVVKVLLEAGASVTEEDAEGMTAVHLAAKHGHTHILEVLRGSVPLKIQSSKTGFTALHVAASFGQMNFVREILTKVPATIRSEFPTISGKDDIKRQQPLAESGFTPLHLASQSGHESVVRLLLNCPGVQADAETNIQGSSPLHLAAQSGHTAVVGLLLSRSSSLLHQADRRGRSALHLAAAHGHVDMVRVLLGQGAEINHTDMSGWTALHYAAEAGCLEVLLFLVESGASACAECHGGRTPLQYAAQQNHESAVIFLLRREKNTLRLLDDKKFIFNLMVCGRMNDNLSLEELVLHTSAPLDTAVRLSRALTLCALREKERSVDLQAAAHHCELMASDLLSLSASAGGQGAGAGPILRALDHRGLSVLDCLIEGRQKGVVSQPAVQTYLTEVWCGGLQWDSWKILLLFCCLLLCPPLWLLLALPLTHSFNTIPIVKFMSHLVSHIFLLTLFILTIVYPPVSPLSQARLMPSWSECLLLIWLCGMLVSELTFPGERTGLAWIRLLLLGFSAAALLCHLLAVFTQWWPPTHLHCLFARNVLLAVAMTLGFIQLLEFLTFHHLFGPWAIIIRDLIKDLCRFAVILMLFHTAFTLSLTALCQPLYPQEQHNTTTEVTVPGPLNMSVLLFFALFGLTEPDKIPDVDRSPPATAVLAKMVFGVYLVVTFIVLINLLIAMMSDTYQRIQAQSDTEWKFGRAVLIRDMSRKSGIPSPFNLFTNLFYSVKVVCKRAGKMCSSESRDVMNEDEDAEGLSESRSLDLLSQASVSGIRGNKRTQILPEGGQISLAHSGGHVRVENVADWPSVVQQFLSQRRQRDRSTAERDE

[14] = microbe, parasite or virus in culture; type: functional; settings: Mycobacterium tuberculosis
[15] = biological target: Type-1 angiotensin II receptor (Homo sapiens, UniProt P30556); experiment: AT1 receptor agonists, dose response, selectivity assay for APJ receptor agonist project, cell-based, uHTS hits (AID 488865); type: functional;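 also: beta-arrestin recruitment to AT1 measured by enzyme fragment complementation luminescence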
Type-1 angiotensin II receptor, sequence (P30556 whole entry, the tested form may be a part): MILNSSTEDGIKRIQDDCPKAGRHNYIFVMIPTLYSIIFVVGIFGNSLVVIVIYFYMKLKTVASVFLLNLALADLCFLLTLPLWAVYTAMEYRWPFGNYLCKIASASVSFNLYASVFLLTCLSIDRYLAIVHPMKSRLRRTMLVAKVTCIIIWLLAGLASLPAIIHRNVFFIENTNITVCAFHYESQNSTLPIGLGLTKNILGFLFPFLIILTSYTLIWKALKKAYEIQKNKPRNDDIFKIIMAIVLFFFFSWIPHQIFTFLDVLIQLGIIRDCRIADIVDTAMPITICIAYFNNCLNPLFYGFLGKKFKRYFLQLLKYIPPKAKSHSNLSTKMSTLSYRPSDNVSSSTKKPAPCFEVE

[16] = biological target: T6, High affinity choline transporter 1 (Homo sapiens, UniProt Q9GZV3); experiment: CHT inhibitors, dose response, cell-based, 5-point CRC, membrane potential dye (AID 504840); type: functional
T6 sequence (Q9GZV3 whole entry): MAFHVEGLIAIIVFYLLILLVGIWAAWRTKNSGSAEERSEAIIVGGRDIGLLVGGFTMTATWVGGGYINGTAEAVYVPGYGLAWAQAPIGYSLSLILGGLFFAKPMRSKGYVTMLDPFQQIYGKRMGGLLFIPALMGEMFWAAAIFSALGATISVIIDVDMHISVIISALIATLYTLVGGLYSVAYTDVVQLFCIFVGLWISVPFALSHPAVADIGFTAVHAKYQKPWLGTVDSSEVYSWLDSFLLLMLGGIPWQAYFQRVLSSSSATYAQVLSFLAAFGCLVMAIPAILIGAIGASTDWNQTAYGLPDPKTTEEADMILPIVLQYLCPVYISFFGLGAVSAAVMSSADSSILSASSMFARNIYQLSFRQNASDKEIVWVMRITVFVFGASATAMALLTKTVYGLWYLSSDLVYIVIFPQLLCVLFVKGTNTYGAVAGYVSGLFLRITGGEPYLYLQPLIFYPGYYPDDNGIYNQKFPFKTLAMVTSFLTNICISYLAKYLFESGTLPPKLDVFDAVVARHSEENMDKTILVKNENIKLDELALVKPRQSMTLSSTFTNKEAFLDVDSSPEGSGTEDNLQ

Beta Lactamase = Beta Lactamase (Pseudomonas aeruginosa, UniProt Q932Y6); experiment: beta-lactamase reporter inhibitor potency, dose response, artefact control for NOD2-RIPK2 interaction inhibitor project, BLA reporter cells, FRET fluorescence (AID 651552); type: functional, cell-based
Beta Lactamase, sequence (Q932Y6 whole entry): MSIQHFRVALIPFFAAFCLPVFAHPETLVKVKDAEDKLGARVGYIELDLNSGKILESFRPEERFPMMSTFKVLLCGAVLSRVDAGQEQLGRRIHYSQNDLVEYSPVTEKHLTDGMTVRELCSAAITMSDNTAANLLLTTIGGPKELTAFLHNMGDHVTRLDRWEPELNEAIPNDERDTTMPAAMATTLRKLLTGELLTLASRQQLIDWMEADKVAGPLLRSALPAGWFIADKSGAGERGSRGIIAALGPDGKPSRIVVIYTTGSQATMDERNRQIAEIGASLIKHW

Paired box protein Pax-8 = Paired box protein Pax-8 (Homo sapiens, UniProt Q06710); experiment: inhibitors of PAX8-driven TPO luciferase reporter, dose response, RMG-I cells, cherry-pick (AID 687027); type: functional, cell-based;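 also: luciferase reporter driven by Pax8 target thyroperoxidase promoter measured by SteadyGlo luminescence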
Paired box protein Pax-8, sequence (Q06710 whole entry): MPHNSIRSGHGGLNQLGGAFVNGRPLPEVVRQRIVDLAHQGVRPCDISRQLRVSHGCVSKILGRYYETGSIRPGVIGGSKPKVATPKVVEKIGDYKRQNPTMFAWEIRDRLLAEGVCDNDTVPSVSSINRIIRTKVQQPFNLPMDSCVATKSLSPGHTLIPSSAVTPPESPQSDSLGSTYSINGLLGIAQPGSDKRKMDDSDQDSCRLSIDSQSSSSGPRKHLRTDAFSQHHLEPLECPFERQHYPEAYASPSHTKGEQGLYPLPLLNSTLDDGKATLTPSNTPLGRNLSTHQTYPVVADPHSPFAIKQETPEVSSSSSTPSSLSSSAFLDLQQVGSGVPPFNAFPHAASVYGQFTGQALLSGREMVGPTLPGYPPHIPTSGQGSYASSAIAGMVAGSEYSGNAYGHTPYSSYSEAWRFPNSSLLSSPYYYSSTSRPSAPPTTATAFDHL

INS1 = experiment: beta cell apoptosis inhibitors, cytokine rescue, dose response, luminescence, retest (AID 449756); type: functional, cell-based; settings: Rattus norvegicus;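 also: cell death triggered by IL-1 beta plus TNF-alpha plus IFN-gamma mixture; protective hits raise ATP signal compared with cytokine alone wells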
[17] = biological target: Heat shock protein HSP 90-alpha (Homo sapiens, UniProt P07900); type: functional, organism-based
[18] = biological target: Alkaline phosphatase, placental type (Homo sapiens, UniProt P05187); experiment: PLAP enzyme inhibitors, confirmation, biochemical, luminescence (AID 1512); type: functional
Alkaline phosphatase, placental type, sequence (P05187 whole entry): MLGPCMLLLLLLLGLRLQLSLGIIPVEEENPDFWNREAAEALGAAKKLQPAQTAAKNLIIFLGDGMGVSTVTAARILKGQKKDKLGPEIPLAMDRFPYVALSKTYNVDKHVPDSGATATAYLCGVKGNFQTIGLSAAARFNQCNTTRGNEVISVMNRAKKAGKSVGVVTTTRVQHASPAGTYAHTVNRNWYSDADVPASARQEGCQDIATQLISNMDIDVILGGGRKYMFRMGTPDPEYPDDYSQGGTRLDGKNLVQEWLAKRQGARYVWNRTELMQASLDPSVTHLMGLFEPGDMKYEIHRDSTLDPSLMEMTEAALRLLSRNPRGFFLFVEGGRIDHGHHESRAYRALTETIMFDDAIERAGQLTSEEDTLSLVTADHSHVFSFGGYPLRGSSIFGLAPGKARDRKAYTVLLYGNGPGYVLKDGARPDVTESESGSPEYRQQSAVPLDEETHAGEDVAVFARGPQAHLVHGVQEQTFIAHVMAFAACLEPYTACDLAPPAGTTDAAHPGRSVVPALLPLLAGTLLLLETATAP

[19] = biological target: Glyceraldehyde-3-phosphate dehydrogenase (Homo sapiens, UniProt P04406)
Glyceraldehyde-3-phosphate dehydrogenase, sequence (P04406 whole entry): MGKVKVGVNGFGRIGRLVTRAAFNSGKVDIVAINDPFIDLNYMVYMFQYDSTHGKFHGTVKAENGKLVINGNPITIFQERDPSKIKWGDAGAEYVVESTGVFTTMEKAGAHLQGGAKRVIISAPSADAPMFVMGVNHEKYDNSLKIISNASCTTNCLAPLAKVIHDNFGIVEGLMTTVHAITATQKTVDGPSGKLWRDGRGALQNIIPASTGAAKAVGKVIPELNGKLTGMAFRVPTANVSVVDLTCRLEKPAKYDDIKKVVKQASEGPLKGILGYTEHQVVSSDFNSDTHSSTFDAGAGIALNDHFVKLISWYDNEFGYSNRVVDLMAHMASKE

[20] = biological target: T7, Alkaline phosphatase, tissue-nonspecific isozyme (Homo sapiens, UniProt P05186); experiment: human TNAP enzyme inhibitors, SAR follow-up, biochemical, luminescent, dose response (AID 1056)
T7 sequence (P05186 whole entry): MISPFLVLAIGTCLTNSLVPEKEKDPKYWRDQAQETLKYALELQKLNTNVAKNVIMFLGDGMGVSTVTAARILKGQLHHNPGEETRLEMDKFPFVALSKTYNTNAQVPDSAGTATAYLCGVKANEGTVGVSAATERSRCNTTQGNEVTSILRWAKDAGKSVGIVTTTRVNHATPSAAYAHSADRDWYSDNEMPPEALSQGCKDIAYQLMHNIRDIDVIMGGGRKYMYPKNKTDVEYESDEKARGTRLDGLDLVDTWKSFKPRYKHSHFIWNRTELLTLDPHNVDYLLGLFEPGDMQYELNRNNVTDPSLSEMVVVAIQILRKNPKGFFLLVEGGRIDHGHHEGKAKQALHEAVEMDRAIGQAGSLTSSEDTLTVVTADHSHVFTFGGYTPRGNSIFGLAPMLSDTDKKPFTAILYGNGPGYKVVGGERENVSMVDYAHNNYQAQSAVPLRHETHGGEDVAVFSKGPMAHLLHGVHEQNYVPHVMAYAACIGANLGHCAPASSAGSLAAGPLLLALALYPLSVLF

T1 sequence (P51452 whole entry): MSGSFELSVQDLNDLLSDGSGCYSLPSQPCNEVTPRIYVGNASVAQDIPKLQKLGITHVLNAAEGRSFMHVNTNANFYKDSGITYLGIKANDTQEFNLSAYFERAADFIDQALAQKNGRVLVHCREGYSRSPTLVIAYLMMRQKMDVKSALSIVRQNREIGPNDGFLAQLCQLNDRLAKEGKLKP

With `NS(=O)(=O)c1ccc(NC(=S)NC2CC2)cc1` the IC50 [1] was 5.38 µM (active), the IC50 [2] was 0.588 µM (active) and the IC50 [3] was > 99 µM (inactive). The IC50 [4] was > 100 µM (inactive), the IC50 [5] was 27.9 µM (active) and the IC50 [6] was > 100 µM (inactive). For the same compound, the IC50 [7] was 12.5 µM (active) and the IC50 [8] was > 99 µM (inactive).

With `CCn1cc(/C=C(\NC(=O)c2ccccc2F)C(=O)N2CCCC2)c2ccccc21` the AC50 (CAAX prenyl protease 2) was 3.91 µM (active).

For `CCCCCC(=O)N/N=C/c1ccc([N+](=O)[O-])o1`, the EC50 [9] was > 60 µM (not active), the EC50 [10] was 0.183 µM (active) and the AC50 [11] was 26.6 µM (active).

In the case of `CC1=CC(=O)C(C(C)C)=C/C1=N/OS(=O)(=O)c1ccccc1`, the EC50 (Mucolipin-3) is reported as > 29.9 µM (not active), the IC50 [12] is reported as 7.38 µM (active) and the EC50 [13] is reported as 4.19 µM (active). The EC50 (Ion channel NompC) was > 29.9 µM (not active), the CC50 [14] was 9.69 µM (active) and the EC50 [15] was > 100 µM (inactive). For the same compound, the IC50 [16] was 12 µM (active), the IC50 (Beta Lactamase) was 49.8 µM (inactive) and the AC50 (Paired box protein Pax-8) was 6.97 µM (active). For the same compound, the AC50 (INS1) was 1.06 µM (active) and the AC50 [17] was 3.61 µM (active).

For `O=C(O)c1cc(-c2ccccc2Cl)n[nH]1`, the IC50 [18] was > 100 µM (inactive), the IC50 [19] was > 100 µM (not active) and the IC50 [20] was 0.584 µM (active).
